Experimental data as given in ChEMBL document CHEMBL1201862, “PubChem BioAssay data set” (2004).
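Interpolation was linear, between the two tested concentrations surrounding the appropriate level; five concentrations were tested over 48 hours in 96-well plates. GI50 is the concentration that inhibits growth by half.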 The source made the active and inactive calls. Rule as the data show it: active = GI50 up to about 1.1 µM and inactive = higher.

How the values were obtained:
Test in all cases: NCI tumour cell line growth inhibition, 48 h
SF-539 = test system: SF-539
HOP-62 = test system: HOP-62
SK-MEL-5 = test system: SK-MEL-5
K562 = test system: K562
786-0 = test system: 786-0
Malme-3M = test system: Malme-3M
T47D = test system: T47D
HCC 2998 = test system: HCC 2998
NCI-H226 = test system: NCI-H226
CCRF-CEM = test system: CCRF-CEM
SN12C = test system: SN12C
A498 = test system: A498
SK-MEL-28 = test system: SK-MEL-28
RPMI-8226 = test system: RPMI-8226
MCF7 = test system: MCF7
MDA-MB-435 = test system: MDA-MB-435
OVCAR-8 = test system: OVCAR-8
NCI/ADR-RES = test system: NCI/ADR-RES
HL-60 = test system: HL-60
UO-31 = test system: UO-31

Row | Compound | GI50 (SF-539) | GI50 (HOP-62) | GI50 (SK-MEL-5) | GI50 (K562) | GI50 (786-0) | GI50 (Malme-3M) | GI50 (T47D) | GI50 (HCC 2998) | GI50 (NCI-H226) | GI50 (CCRF-CEM) | GI50 (SN12C) | GI50 (A498) | GI50 (SK-MEL-28) | GI50 (RPMI-8226) | GI50 (MCF7) | GI50 (MDA-MB-435) | GI50 (OVCAR-8) | GI50 (NCI/ADR-RES) | GI50 (HL-60) | GI50 (UO-31)
1 | O=C1c2cc([N+](=O)[O-])cc3cc([N+](=O)[O-])cc(c23)C(=O)N1CCCNCCNCCCN1C(=O)c2cc([N+](=O)[O-])cc3cc([N+](=O)[O-])cc(c23)C1=O | 0.0533 µM (active) | 0.185 µM (active) | 0.287 µM (active) | < 0.0167 µM (active) | 0.0879 µM (active) | 0.223 µM (active) | 0.587 µM (active) | 0.0655 µM (active) | 0.0641 µM (active) | < 0.015 µM (active) | 0.0366 µM (active) | 0.769 µM (active) | 0.233 µM (active) | < 0.0114 µM (active) | 0.0695 µM (active) | 0.975 µM (active) | 0.0841 µM (active) | 1.34 µM (inactive) | 0.0166 µM (active) | 0.375 µM (active)
2 | COC(=O)c1ccc2cc(O)c(O)cc2c1 | 40 µM (inactive) | 56 µM (inactive) | 22.1 µM (inactive) | 33.9 µM (inactive) | 41.8 µM (inactive) | 35.8 µM (inactive) | 25.8 µM (inactive) | > 68.9 µM (inactive) | 38.9 µM (inactive) | 18.9 µM (inactive) | 55.2 µM (inactive) | 30.8 µM (inactive) | 46.9 µM (inactive) | 29.4 µM (inactive) | 42.9 µM (inactive) | 34.7 µM (inactive) | 33 µM (inactive) | 25.6 µM (inactive) | > 100 µM (inactive) | 17.4 µM (inactive)
3 | Cc1ccc(C(=N)Nc2ccccc2)cc1 | > 100 µM (inactive) | > 100 µM (inactive) | 89.7 µM (inactive) | > 100 µM (inactive) | > 100 µM (inactive) | > 100 µM (inactive) | > 100 µM (inactive) | 8.13 µM (inactive) | > 100 µM (inactive) | 52.2 µM (inactive) | > 100 µM (inactive) | > 100 µM (inactive) | > 100 µM (inactive) | > 100 µM (inactive) | 41.9 µM (inactive) | > 100 µM (inactive) | > 100 µM (inactive) | > 100 µM (inactive) | > 100 µM (inactive) | > 100 µM (inactive)
4 | N=C(N)NS(=O)(=O)c1ccc(NC(=O)c2ccc3nc4ccccc4c(Nc4ccc(S(N)(=O)=O)cc4)c3c2)cc1 | > 100 µM (inactive) | > 100 µM (inactive) | > 100 µM (inactive) | > 100 µM (inactive) | > 100 µM (inactive) | > 100 µM (inactive) | > 100 µM (inactive) | > 100 µM (inactive) | > 100 µM (inactive) | > 100 µM (inactive) | > 100 µM (inactive) | > 100 µM (inactive) | > 100 µM (inactive) | > 100 µM (inactive) | > 100 µM (inactive) | > 100 µM (inactive) | > 100 µM (inactive) | > 100 µM (inactive) | > 100 µM (inactive) | > 100 µM (inactive)
5 | O=S(=O)(O)c1cc(S(=O)(=O)O)c2c(/N=N/c3ccc(/N=N/c4ccccc4)cc3)c(O)ccc2c1 | > 100 µM (inactive) | > 100 µM (inactive) | > 100 µM (inactive) | > 100 µM (inactive) | > 100 µM (inactive) | > 100 µM (inactive) | > 100 µM (inactive) | > 100 µM (inactive) | > 100 µM (inactive) | > 100 µM (inactive) | > 100 µM (inactive) | 52.1 µM (inactive) | > 100 µM (inactive) | > 100 µM (inactive) | > 100 µM (inactive) | > 100 µM (inactive) | > 100 µM (inactive) | > 100 µM (inactive) | > 100 µM (inactive) | > 100 µM (inactive)
6 | Clc1ccc(Cl)c(SCCCN2CCNCC2)c1 | 27.5 µM (inactive) | 18 µM (inactive) | 15.2 µM (inactive) | 14.6 µM (inactive) | 20.1 µM (inactive) | 15.8 µM (inactive) | 23.9 µM (inactive) | 3.61 µM (inactive) | 18.3 µM (inactive) | 19.9 µM (inactive) | 19.2 µM (inactive) | 13.7 µM (inactive) | 10.4 µM (inactive) | 19.8 µM (inactive) | 18.4 µM (inactive) | 14 µM (inactive) | 20.3 µM (inactive) | 17.3 µM (inactive) | 14.2 µM (inactive) | 14.4 µM (inactive)
7 | CN1N=C(N)c2cn(C3OC(COP(=O)(O)O)C(O)C3O)c3ncnc1c23 (stereo not given) | 32.4 µM (inactive) | 23.5 µM (inactive) | 1080 µM (inactive) | 385 µM (inactive) | 20.5 µM (inactive) | 136 µM (inactive) | 0.5 µM (active) | 129 µM (inactive) | 7.41 µM (inactive) | 13 µM (inactive) | 4.24 µM (inactive) | 33.7 µM (inactive) | 194 µM (inactive) | 282 µM (inactive) | 1.65 µM (inactive) | 34.3 µM (inactive) | 1.28 µM (inactive) | 4.08 µM (inactive) | 1.65 µM (inactive) | 4.97 µM (inactive)
8 | CN(C)CCCNC(=O)c1c(O)c2ccccc2n(C)c1=O | 78.3 µM (inactive) | 36.3 µM (inactive) | 53.7 µM (inactive) | 79.3 µM (inactive) | 65.3 µM (inactive) | 72.4 µM (inactive) | 71.3 µM (inactive) | 82.2 µM (inactive) | 67 µM (inactive) | 43.1 µM (inactive) | 67.1 µM (inactive) | > 100 µM (inactive) | 74.6 µM (inactive) | 73.8 µM (inactive) | 43.9 µM (inactive) | 61.8 µM (inactive) | 49.4 µM (inactive) | 41.2 µM (inactive) | 36.5 µM (inactive) | 9.27 µM (inactive)
9 | CCCC(CCC)C(=O)O [VALPROIC ACID] | 15200 µM (inactive) | > 100 µM (inactive) | 2740 µM (inactive) | 6810 µM (inactive) | > 100 µM (inactive) | 4400 µM (inactive) | 7520 µM (inactive) | 5710 µM (inactive) | > 100 µM (inactive) | 14800 µM (inactive) | > 100 µM (inactive) | 532 µM (inactive) | > 100 µM (inactive) | 4070 µM (inactive) | 6580 µM (inactive) | 10900 µM (inactive) | 3920 µM (inactive) | 10900 µM (inactive) | 10300 µM (inactive) | 6280 µM (inactive)
10 | O=C(CCCc1ccccn1)c1ccccc1 | > 100 µM (inactive) | > 100 µM (inactive) | > 100 µM (inactive) | > 100 µM (inactive) | > 100 µM (inactive) | > 100 µM (inactive) | > 100 µM (inactive) | > 100 µM (inactive) | > 100 µM (inactive) | > 100 µM (inactive) | > 100 µM (inactive) | > 100 µM (inactive) | > 100 µM (inactive) | > 100 µM (inactive) | > 100 µM (inactive) | > 100 µM (inactive) | > 100 µM (inactive) | > 100 µM (inactive) | > 100 µM (inactive) | > 100 µM (inactive)
11 | O=C1CCCCN1C(=O)c1ccc([N+](=O)[O-])cc1 | > 100 µM (inactive) | > 100 µM (inactive) | > 100 µM (inactive) | > 100 µM (inactive) | > 100 µM (inactive) | > 100 µM (inactive) | > 100 µM (inactive) | > 100 µM (inactive) | > 100 µM (inactive) | > 100 µM (inactive) | 24 µM (inactive) | > 100 µM (inactive) | > 100 µM (inactive) | > 100 µM (inactive) | > 100 µM (inactive) | > 100 µM (inactive) | > 100 µM (inactive) | > 100 µM (inactive) | > 100 µM (inactive) | > 100 µM (inactive)
12 | NC1CC(=O)c2c(Cl)sc(Cl)c21 (stereo not given) | 2.37 µM (inactive) | 10.7 µM (inactive) | 8.79 µM (inactive) | 2.03 µM (inactive) | 1.41 µM (inactive) | 2.22 µM (inactive) | 1.74 µM (inactive) | 10.1 µM (inactive) | 14.4 µM (inactive) | 0.885 µM (active) | 2.05 µM (inactive) | 15.3 µM (inactive) | 1.73 µM (inactive) | 2.37 µM (inactive) | 1.82 µM (inactive) | 4.62 µM (inactive) | 5.46 µM (inactive) | 15 µM (inactive) | 1.6 µM (inactive) | 9.86 µM (inactive)
13 | CC1OC(=O)C2CC3CCCCC3C(/C=C/C3CCCC(C)N3C)C12 (stereo not given) | > 100 µM (inactive) | > 100 µM (inactive) | 94.6 µM (inactive) | > 100 µM (inactive) | > 100 µM (inactive) | > 100 µM (inactive) | > 100 µM (inactive) | > 100 µM (inactive) | > 100 µM (inactive) | > 100 µM (inactive) | > 100 µM (inactive) | > 100 µM (inactive) | > 100 µM (inactive) | > 100 µM (inactive) | 90.8 µM (inactive) | > 100 µM (inactive) | > 100 µM (inactive) | > 100 µM (inactive) | > 100 µM (inactive) | > 100 µM (inactive)
14 | CCC1CN2CCc3cc(OC)c(OC)cc3C2CC1CC1c2cc(OC)c(OC)cc2CCN1C(=O)C(Cc1c[nH]c2ccccc12)NC(=O)OC(C)(C)C (stereo not given) | 2.34 µM (inactive) | 4.91 µM (inactive) | 1.67 µM (inactive) | 2.7 µM (inactive) | 2.61 µM (inactive) | 1.74 µM (inactive) | 1.85 µM (inactive) | 2.63 µM (inactive) | 13.4 µM (inactive) | 3.1 µM (inactive) | 3.26 µM (inactive) | 6.65 µM (inactive) | 1.98 µM (inactive) | 2.52 µM (inactive) | 2.31 µM (inactive) | 1.78 µM (inactive) | 3.27 µM (inactive) | 1.63 µM (inactive) | 2.03 µM (inactive) | 2.77 µM (inactive)
